Reference: PMC4876444, “Two-Photon Enzymatic Probes Visualizing Sub-cellular/Deep-brain Caspase Activities in Neurodegenerative Models” (Scientific Reports, 2016)
Where a SMILES comes first, the peptide text is derived from it. The star is where a group is joined. NH(6-Ac-2-naphthyl) = CC(=O)c1ccc2cc(N*)ccc2c1; Cbz = O=C(OCc1ccccc1)*; CH2F = FC*

What was measured:
[1] = not given; remark: listed apart in the source
[2] = not given; remark: listed apart in the source
[3] = system: caspase-3-like activities in STS-induced BV2 and HeLa cells; experiment: TPFM live-cell imaging of STS-induced apoptotic cells; format: cell-based, mouse, human
Method: Figure 3 Bioimaging of active caspases in live cells. TPFM (λex = 760 nm; λem = 480-550 nm for all AAN-probes) of STS-induced (a) BV2 cells (2 μM, 4 h) and (b) HeLa cells (1 μM, 4 h) using C3RA/C8RA (24 μM, 1 h). Panels 3/6: cells pretreated with Z-VAD(OMe)-FMK (50 μM, 1 h) before STS addition. Panels 1/4: normal cells (DMSO). (c) WB analysis of cleaved caspase-3/-8 from (a,b). (d) TPFM of normal/apoptotic Hela cells imaged by C3RA (24 μM, up) or Ac-DEVD-AMC (40 μM, down; λem = 420–500 nm). Panels 1/3: normal cells. Panels 2/4: STS-induced cells (1 μM, 4 h). Bottom inset: bright field. Top inset: one-photon images (λex = 405 nm). (e) Real-time imaging of caspase-3/-8-like activities in live BV2 cells using 24 μM of C3RA (top)/C8RA (bottom) upon STS (2 μM) stimulation over 2 h. (f) Graphical quantification of RFU extracted from (e). (g) WB analysis of time-dependent caspase-3/-8 cleavage from STS-induced (2 μM) BV2 lysates. (h) WB analysis of time-dependent caspase-3/-7/-8 activation by detection of cleaved caspase-3/-7/-8 from lysates of HeLa cells stimulated with STS (2 μM). (i) RFU from real-time imaging of caspase-3-like activity in live HeLa cells with C3RA/C3RM/C3RE (24 μM, added 1 h before STS) upon STS (2 μM) stimulation. (j) Representative images (t = 60 min) from (i). (k) IF of STS-stimulated (2 μM, 2 h) HeLa cells by anti-caspase-3 (p17) antibody (red) with 3D projections of z-stack images at 90° view and merged with MitoTracker (green, left) or ER tracker (cyan, right). (l) TPFM of caspase-1 activation in primary cortical neurons upon glucose deprivation (GD, 8 h) followed by 1-h incubation with C1RB (24 μM) or C1FS (12 μM; λem = 450–550 nm). Inset: bright field images. NC: neuron cells incubated in normal neurobasal medium. Scale bar = 10 μm in all images.
NIH/3T3, HeLa and BV2 cell lines used in our experiments were cultured in DMEM medium supplemented with 10% (for NIH/3T3 and HeLa) or 5% (for BV2) fetal bovine serum (FBS), with 100.0 mg/L streptomycin and 100 IU/mL penicillin. […]

[4] = system: NIH/3T3, BV2 and HeLa cells; experiment: XTT cytotoxicity assay; format: cell-based, mouse, human; conditions: XTT assay, 12, 30, 60, 120 μM, 24 h
Method: Supplementary Figure 4. Cytotoxicity of two-photon enzymatic probes (12, 30, 60, 120 μM) in mammalian cells (NIH/3T3, BV2 and HeLa) after incubation for 24 h, as determined by XTT assay. […]
Detection of caspase activities in mammalian cells and tissues
Cell culture. The mouse embryonic fibroblast cell line (NIH/3T3), mouse microglial cell line (BV2) and human epithelial carcinoma cell line (HeLa) used in our experiments were cultured in Dulbecco’s Modified Eagle's Medium (DMEM) supplemented with 10% (for NIH/3T3 and HeLa) or 5% (for BV2) fetal bovine serum (FBS), 100.0 mg/L streptomycin and 100 IU/mL penicillin in a humidified atmosphere of 5% CO2 at 37 °C.
XTT assay. The cytotoxicity of our probes was determined by using the XTT colorimetric cell proliferation kit (Roche) following manufacturer’s guidelines. Briefly, NIH/3T3, BV2 and HeLa cells were seeded in 20~30% confluency (since they will reach >50% confluency within 24 h) into 96-well plates and incubated overnight before the addition of probes with concentrations of 12 μM, 30 μM, 60 μM and 120 μM, respectively. Probes were applied from DMSO stocks whereby DMSO never exceeded 1% in the final solution. The same volume of DMSO was used as a negative control; and the same volume of STS (200 nM) was used as a positive control. After a total treatment time of 24 h, proliferation was assayed using the XTT assay (Supplementary Fig. 4). […]

[5] = system: caspases (-1, -3, -6, -8 and -9); experiment: In vitro selectivity against a panel of recombinant caspases; format: biochemical, Human; conditions: probe 6 μM, uniform conditions with caspases -1, -3, -6, -8, -9, 2-h incubation at room temperature, tetrapeptide-AMC as references
Method: Figure 2 Photophysical and enzymatic properties of caspase probes. (a) Photophysical and kinetic properties of probes and free dyes. All measurements were taken in 50 mM HEPES, 50 mM NaCl, 0.1% CHAPS, 10 mM EDTA, 5% glycerol, 10 mM DTT, at pH = 7.2. (b) Time-dependent ratiometric fluorescence changes of C1RB (6 μM) incubated with caspase-1 (10 nM) over 2 h at room temperature. Data were obtained by plotting the normalized ratio of fluorescence intensity at 500 nm (F500 nm) over that at 450 nm (F450 nm). (Inset) time-dependent fluorescence emission spectra with λex = 350 nm. (c) Time-dependent “Turn-ON” effect of C1FS (6 μM) incubated with caspase-1 (10 nM) measured and normalized at 460 nm (F460 nm) over 2 h at room temperature, with the corresponding fluorescence emission spectra (inset). λex = 350 nm. […] S and N represent the fluorescence emission intensity of each reaction solution in the presence (S) and absence (N) of caspase-1. […] Normalized, relative fluorescence (RFU) values were obtained after 2-h incubation at room temperature. […]
Enzyme kinetics. […] Detailed kinetic properties of these probes were measured with target recombinant caspases using commercial tetrapeptide-AMC fluorogenic substrates as references at 25 °C in 384-well plates (Greiner Bio-One #781900). […]
shaking at 150 rpm for 24 h at 25 °C, a small portion of the reaction was analyzed by LC-MS (IT-TOF). […]

Row | Compound | δΦ (two-photon action cross-section) | λex (absorption/excitation maximum) [1] | λem (emission maximum) [2] | fluorescence properties for imaging caspase-3-like activities under two-photon settings, compared to C3RA ([3]; live HeLa cells, STS 1 μM 4 h, 40 μM, λex 760 nm) | cytotoxicity [4] | probe selectivity profile towards intended caspase [5] | effect of inhibitor on C3RA fluorescence in STS-induced cells ([3]; inhibitor 50 μM, 1 h before STS, BV2 and HeLa cells, C3RA 24 μM)
1 | CC(=O)N[C@@H](Cc1ccc(O)cc1)C(=O)N[C@H](C(=O)N[C@@H](C)C(=O)N[C@@H](CC(=O)O)C(=O)Nc1ccc2cc(C(C)=O)ccc2c1)C(C)C | 6.9 GM | 316 nm | 448 nm | – | – | – | –
2 | CC(=O)N[C@@H](CC(=O)O)C(=O)N[C@@H](CCC(=O)O)C(=O)N[C@H](C(=O)N[C@@H](CC(=O)O)C(=O)Nc1ccc2c(C)cc(=O)oc2c1)C(C)C [Ac-DEVD-AMC] | – | – | – | significantly poorer fluorescence properties | – | – | –
3 | CC(=O)c1ccc2cc(NC(=O)[C@H](CC(=O)O)NC(=O)[C@@H](NC(=O)[C@H](CCC(=O)O)NC(=O)[C@H](CC(=O)O)NC(=O)CCC[P+](c3ccccc3)(c3ccccc3)c3ccccc3)C(C)C)ccc2c1 [C3RM, TPP-DEVD-AAN] | 1.4 GM | 317 nm | 448 nm | – | minimally cytotoxic | – | –
4 | CC[C@H](C)[C@H](NC(=O)[C@H](CCC(=O)O)NC(=O)[C@@H](NC(C)=O)C(C)C)C(=O)N[C@@H](CC(=O)O)C(=O)Nc1ccc2cc(C(C)=O)ccc2c1 [C6RA, Ac-VEID-AAN] (Ac-VEID-{NH(6-Ac-2-naphthyl)}) | 1.8 GM | 316 nm | 448 nm | – | – | comparatively poor selectivity profiles | –
5 | CC[C@H](C)[C@H](NC(C)=O)C(=O)N[C@@H](CCC(=O)O)C(=O)N[C@H](C(=O)N[C@@H](CC(=O)O)C(=O)Nc1ccc2cc(C(C)=O)ccc2c1)[C@@H](C)O [C8RA, Ac-IETD-AAN] (Ac-IETD-{NH(6-Ac-2-naphthyl)}) | 2.4 GM | 316 nm | 448 nm | – | minimally cytotoxic | – | –
6 | CC(=O)N[C@@H](CC(C)C)C(=O)N[C@@H](CCC(=O)O)C(=O)N[C@@H](Cc1c[nH]cn1)C(=O)N[C@@H](CC(=O)O)C(=O)Nc1ccc2cc(C(C)=O)ccc2c1 [C9RA, Ac-LEHD-AAN] (Ac-LEHD-{NH(6-Ac-2-naphthyl)}) | 3.2 GM | 316 nm | 448 nm | – | – | comparatively poor selectivity profiles | –
7 | Cbz-Val-Ala-Asp(OMe)-CH2F | – | – | – | – | – | – | inhibited
